Calls of active or inactive are those of the source. The rule behind the calls is not given here. Where only a bound is given, the exact number is not on record here.

The assay addresses RanGTP-importin-beta complex (human Ran / KPNB1). Briefly: disruptors of RanGTP/KPNB1 binding – biochemical, FRET, CFP/YFP, cell-free homogeneous, confirmation (AID 2823). The conditions noted are these: CFP-Ran/YFP-importin-beta FRET ratio.
On to `Cc1noc(C)c1C(=O)Nc1sc2c(c1C(N)=O)CCC2`, for which the IC50 (as a rule, the point on the concentration scale where inhibition reaches its midpoint) was > 50 µM (inactive). Regarding `NC(=O)CN(Cc1ccccc1)S(=O)(=O)c1ccc2c(c1)OCCO2`, the IC50 is > 50 µM (inactive). Take `COc1ccc2cc(C(C)=O)c(=O)oc2c1`: the IC50 was 32.2 µM. The value for `O=C1NC(=O)N(Cc2ccccc2)C(=O)/C1=C\N1CCCc2ccccc21` was > 50 µM (inactive); that for `COC(=O)c1c(NC(NC(=O)c2ccccc2)(C(F)(F)F)C(F)(F)F)sc2c1CCN(C)C2` was 35.8 µM; that for `Cc1ccc(C)c(NC(=S)N(C)CCc2ccccn2)c1` was > 50 µM (inactive). As for `Cc1ccccc1NC(=O)/C(C#N)=C\c1cn(CC(=O)O)c2ccccc12`, the concentration for half-maximal inhibition (IC50) was 47.6 µM.

Regarding `Cc1cccn2c(=O)c(/C=C(\C#N)C(=O)NC3CCS(=O)(=O)C3)c(Oc3ccc(F)cc3)nc12` (stereo not given), the IC50 is 15.6 µM.

Turning to `O=C1CC(/C=C/c2ccco2)=Nc2ccccc2N1`, the IC50 was > 50 µM (inactive). As to `Oc1cccc(/C=N/Nc2cc(N3CCCC3)nc(N3CCCC3)n2)c1`, the IC50 is > 50 µM (inactive). The value for `COc1ccccc1C(=O)c1cc2ccc(O)cc2oc1=O` was 5.1 µM; that for `Oc1ccc(/C=N/Nc2cc(N3CCOCC3)nc(N3CCOCC3)n2)cc1` was > 50 µM (inactive). `CC(=O)N1CN2CN(C(C)=O)CC(C(=O)c3ccccc3)(C2)C1`: the IC50 is > 50 µM (inactive). On to `COc1ccc(-n2cnc3cc(NCc4ccco4)ccc32)cc1`, for which the IC50 is > 50 µM (inactive).

Turning to `CC(O)CNc1nc2ccccc2n1CC(=O)NC12CC3CC(CC(C3)C1)C2` (stereo not given), the IC50 was > 50 µM (inactive). Consider `COc1ccccc1C(=O)NC(=S)Nc1ccc(N2CCCC2)cc1`, for which the IC50 is > 50 µM (inactive). Then `Cc1cccc(C)c1NC(=O)C1=C(O)c2sccc2N(C)S1(=O)=O`, with 4.36 µM; and `CC(C)CCNC(=O)C(c1ccco1)N(Cc1ccc(F)cc1)C(=O)c1snc(C(N)=O)c1N` (stereo not given), with > 50 µM (inactive). Regarding `CC1=NC(Nc2nc(C)c3ccccc3n2)=NC(C)(C)C1`, the IC50 is > 50 µM (inactive). Then `CCN(/N=C/C=C/c1ccccc1)c1cc(=O)n(C)c(=O)[nH]1`, with > 50 µM (inactive); and `COc1ccccc1C1CC(c2ccc(Cl)cc2)Nc2nc(N)nn21` (stereo not given), with > 50 µM (inactive); and `Cc1ccc(NC(=O)C2CCN(S(=O)(=O)c3ccc(Cl)c(C(F)(F)F)c3)CC2)nc1`, with > 50 µM (inactive).

For the compound `COC(=O)c1cc(NC(=O)c2ccc([N+](=O)[O-])cc2)c(=O)oc1C`, the IC50 is > 50 µM (inactive).

Regarding `CCOC(=O)C1=C(N)OC2=C(C(=O)CCC2)C1c1sccc1C` (stereo not given), the IC50 is > 50 µM (inactive). Then `CCN1C(=S)SC(=O)C1=C1C=C(C)N(Cc2ccco2)C(C)=C1`, with 11.1 µM; and `Oc1c(C=Nc2ccccc2)sc(=S)n1Cc1ccccc1`, with > 50 µM (inactive). Take `NC(N)=N/N=C/c1ccc(N(c2ccccc2)c2ccccc2)cc1`: the IC50 was 16.8 µM. The value for `CCN1CCc2nc(NC(=O)CC(c3ccccc3)c3ccccc3)sc2C1` was 23.2 µM; that for `COc1ccc(C(=O)/C=C(\C)NCc2ccc3c(c2)OCO3)cc1` was > 50 µM (inactive); that for `OCCNCc1cccc(OCc2ccccc2Cl)c1` was > 50 µM (inactive). Regarding `O=C1NC(c2cccc([N+](=O)[O-])c2)Oc2ccccc21` (stereo not given), the IC50 was > 50 µM (inactive).

As for `Cn1c(=O)c2c(ncn2CCOc2ccc(F)cc2)n(C)c1=O`, the IC50 is > 50 µM (inactive). The value for `Cc1cc(Cl)c(S(=O)(=O)N2CCCC2)cc1OCC(=O)NC1CCCCC1` was > 50 µM (inactive); that for `CCCCn1c(N)c(N(CCOC)C(=O)CN2c3ccccc3CC2C)c(=O)[nH]c1=O` (stereo not given) was > 50 µM (inactive); that for `CCn1c2ccccc2c2cc(NC(=O)CNC)ccc21` was > 50 µM (inactive).

Turning to `Cc1cccc(C)c1NC(=O)C1c2cccc[n+]2CC(=O)N1Cc1cccs1` (stereo not given), the IC50 is > 50 µM (inactive). Regarding `O=C(CN1CCN(C/C=C/c2ccccc2)CC1)NC(=O)NC1CCCCC1`, the IC50 is > 50 µM (inactive). For the compound `Cc1ccc(-c2c(C#N)c(N)nc3c2CCCC3)s1`, the IC50 is 25.7 µM.

On to `Clc1cccc(-c2ccc(C=Nc3ccc(N4CCOCC4)cc3)o2)c1Cl`, for which the IC50 was > 50 µM (inactive). For the compound `O=C(Nc1nc2ccc(S(=O)(=O)N3CCCCC3)cc2s1)c1cccnc1`, the IC50 is > 50 µM (inactive).

Turning to `O=C(Cn1c2ccccc2c(=O)c2ccccc21)N/N=C/c1ccc(N2CCCC2)c([N+](=O)[O-])c1`, the IC50 is > 50 µM (inactive).

On to `COC(=O)c1n[nH]c2ccccc12`, for which the concentration for half-maximal inhibition (IC50) is 47.7 µM. With `N#Cc1cc(NCC2CCCO2)c([N+](=O)[O-])cc1C#N` (stereo not given), the IC50 was > 50 µM (inactive). Turning to `Cc1nnc(Sc2nc3c(c(=O)n(C)c(=O)n3C)n2Cc2ccccc2Cl)s1`, the IC50 was > 50 µM (inactive).

Consider `CCOC(=O)c1c(NC(=O)CN2CCCc3ccccc32)sc(C(C)=O)c1C`, for which the IC50 was > 50 µM (inactive). With `COc1ccccc1N1CCN(C(=O)/C=C/c2ccc(C)cc2)CC1`, the IC50 is > 50 µM (inactive). For `O=C(CN1CC(=O)Oc2ccccc21)NCc1ccco1`, the IC50 was > 50 µM (inactive). With `Cc1ccc(N=Cc2cc3c(cc2O)OC(N)=C(C#N)C3c2ccccc2)cc1` (stereo not given), the IC50 was > 50 µM (inactive). On to `CC(C)(C)Nc1nc(SCC(=O)Nc2ccccc2)nc(N2CCOCC2)n1`, for which the IC50 was > 50 µM (inactive). For the compound `CCCN1CCC2(CC1)C(C#N)=C(N)Oc1c2sc2nc(C)cc(C)c12`, the IC50 is > 50 µM (inactive). With `CC(=O)Oc1cc2oc(=O)cc(C)c2cc1OC(C)=O`, the IC50 was 24.7 µM. As to `Oc1cccc(Nc2c3ccccc3nc3ccccc23)c1`, the IC50 is > 50 µM (inactive). The value for `COCCNC(=O)/C(C#N)=C/c1c(N2CCN(c3ccc(OC)cc3)CC2)nc2c(C)cccn2c1=O` was 39.2 µM; that for `COc1ccc(-c2c(C)c3ccc(O)cc3oc2=O)cc1` was 36.3 µM; that for `COCCNC(=S)N1CCCN(c2nc3cc(C)ccc3cc2C#N)CC1` was 29.5 µM.

Take `COC(=O)c1ccc2c(C(C)(C)O)c(C(C)(C)O)[nH]c2c1`: the IC50 was > 50 µM (inactive). Then `CCOC(=O)CC(=O)CSc1nc2c(cc1C#N)CCC2`, with 29.2 µM; and `Cc1ccc2nc(NCCNC(=O)c3ccccc3)c(C#N)cc2c1`, with 3.62 µM; and `Nc1c(C(=O)Nc2ccccc2)c2nc3ccccc3nc2n1CCCN1CCOCC1`, with 41.7 µM. In the case of `C=CCN1C(=O)/C(=C2/Sc3ccccc3N2CC)SC1=S`, the IC50 is > 50 µM (inactive). Consider `CC(C)CCNC(=O)C(c1ccco1)N(Cc1ccccc1)C(=O)c1snc(C(N)=O)c1N` (stereo not given), for which the IC50 is > 50 µM (inactive). Take `O=C(NNc1c2ccccc2nc2ccccc12)c1cc2ccccc2cc1O`: the IC50 is > 50 µM (inactive). On to `NS(=O)(=O)c1ccc(CCNC(=O)C2CCN(S(=O)(=O)c3ccc(Br)s3)CC2)cc1`, for which the IC50 is > 50 µM (inactive). As to `N#C/C(=C\c1ccc(O)c(Br)c1)C(=O)NCc1ccccc1`, the IC50 was 25.8 µM. As to `N#CC1=C(N)SC(N)=C(C#N)C1c1cccc(O)c1`, the IC50 was > 50 µM (inactive). As for `Cc1sc(NC(=O)c2oc3ccccc3c2C)c(C#N)c1C`, the IC50 was > 50 µM (inactive). Consider `COc1ccc(N2C(=O)N3[C@H](c4ccc(Br)cc4)[C@@H]4C(=O)N(C(C)(C)C)C(=O)[C@@H]4[C@]3(Cc3ccccc3)C2=O)cc1`, for which the IC50 is > 50 µM (inactive). Consider `Cc1ccc(C(=O)NNC2CC(=O)N(c3ccc4c(c3)OCCO4)C2=O)cc1` (stereo not given), for which the IC50 was > 50 µM (inactive). On to `CC(=O)Nc1ccc(S(=O)(=O)NCc2nc(-c3cccc(C)c3)no2)cc1`, for which the IC50 is > 50 µM (inactive). For the compound `CCc1c(C)c2cc(Cl)c(O)c(CN(CC)CC)c2oc1=O`, the IC50 was 22 µM.

On to `Cc1ccc(C(=O)NCc2ccco2)cc1S(=O)(=O)N1CCOCC1`, for which the IC50 is > 50 µM (inactive).

`Cc1ccc(CNC(=O)c2cccnc2)cc1`: the IC50 was > 50 µM (inactive).

Regarding `CCCn1c(=N)c(C(=O)NCc2ccc3c(c2)OCO3)cc2c(=O)n3cccc(C)c3nc21`, the IC50 is 10.2 µM. For the compound `C#CCOc1ccc(C2C3=C(CC(C)(C)CC3=O)N(CC(=O)O)C3=C2C(=O)CC(C)(C)C3)cc1OC`, the IC50 was 32 µM. With `COc1cc(C(=O)Oc2c(CN3CCOCC3)cc(Cl)c3cccnc23)cc(OC)c1OC`, the IC50 is > 50 µM (inactive).

Source of the values: PubChem BioAssay AID2823 (Broad Institute, 2010).
